Assay results published in publication PMC6936879, “Inhibiting the copper efflux system in microbes as a novel approach for developing antibiotics” (PLoS ONE, 2019).

Legend:
CusB = biological target: T1, CusB (Escherichia coli, UniProt P77239, A236C/A248C); assay: DEER distance distribution measurements on spin-labeled CusB; design: species or system E. coli; details: CusB spin labeled (MTSSL) at A236C and A248C; Cu(I):CusB 3:1; Q-band DEER at 50 K; apo-CusB 2.5 ± 0.5 nm, holo-CusB 2.8 ± 0.3 nm
T1 construct: intein (cleaved yes); made in house; host or cells: E. coli BL21 (DE3)
Procedure: Before labeling, 10 mM DTT was added to the protein solution and mixed overnight at 4°C. DTT was dialyzed out using a Microsep Advanced Centrifugal Device (Pall, Port Washington, NY, USA) applied to samples of up to 5 mL in lysis buffer, with a 3-kDa molecular weight cutoff. Next, 0.25 mg of S-(2,2,5,5-tetramethyl-2,5-dihydro-1H-pyrrol-3-yl)methyl methanesulfonothioate (MTSSL, TRC) was dissolved in 15 μL Dimethyl sulfoxide (DMSO) and added to 0.75 ml of 0.01 mM protein solution (20-fold molar excess of MTSSL). The protein solution was then vortexed overnight at 4°C. The free spin label and Cu(I) ions were removed by several dialysis cycles over 4 days. […] The concentration was determined with a Lowry assay. […]
A constant-time four-pulse double electron-electron resonance (DEER) experiment with pulse sequence π/2(νobs)-τ1-π(νobs)-t′−π(νpump)-(τ1 + τ2 − t′)-π(νobs)-τ2(νobs)-τ2-echo was performed at (50 ± 0.5 K) on a Q-band Elexsys E580 equipped with a 2-mm probe head; bandwidth, 220 MHz. […] The echo was measured as a function of t′, and τ2 was kept constant to eliminate relaxation effects. […] The samples were measured in 1.6-mm quartz capillary tubes (Wilmad-Labglass, Vineland, NJ, USA). The data were analyzed with the DeerAnalysis 2016 program and with Tikhonov regularization. […]

E. coli (BL21;DE3) = assay: E. coli growth rate experiment (O.D. 600 nm) under copper stress; format: cell-based; details: M9 medium, 37 °C, value after 14 h incubation, 5 μM Cu(II) chloride in assay (sentence does not say with or without Cu(II)), mean ± SE, n = 5
Procedure: E. coli (BL21;DE3) growth rates were evaluated in 96-well microplates: in 200 μl of a poor medium comprising M9 medium. Incubation was for 16 h at 37°C with Copper(II) chloride (Sigma-Aldrich, St. Louis, MO, USA) at a concentration of 5 μM. Absorbance at 600 nm was measured every 30 min after stirring for 5 s in a 96-well plate reader (SPL Life Sciences, Gyeonggi, Korea). The buffer background was auto-subtracted. Each experiment was repeated five times under identical conditions.
Next, E. coli were grown in M9 medium for 16 h, and their growth rate was evaluated in the absence and presence of Cu(II) in the medium. In each sample, a different peptide was introduced to the medium, with the kanamycin as a positive control. […] Growth rate values for all peptides at various concentrations after 14 h of incubation are presented in Fig 3 (the growth rate curves are presented in Figs E to F in S1 File).
Fig 3 Effect of test peptides on the E. coli growth rate. E. coli cultures were grown as described in Methods. The growth rate values after a 14 h incubation in the medium in the presence (gray lines) and absence (black lines) of Cu(II). Concentrations of the test peptides: A. 50 μM, B. 75 μM, C. 100 μM, and D. 125 μM. *p < 0.05, MEAN ± SE, n = 5, a comparison between the values in the presence and absence of Cu(II). #p < 0.05, MEAN ± SE, n = 5, in the presence of Cu(II) and comparing between values of a buffer and peptide. t-test was used for the statistic evaluation.

E. coli (BL21) = assay: Kirby-Bauer test (disc diffusion); format: cell-based; details: 2 mm radius discs, LB petri dishes, 37 °C overnight

Q: What does the source list for AKIQG [pep8]?
A: DEER distance distribution of CusB bound to peptide and incubated with Cu(I) (CusB): around 3.2 nm; decrease in O.D. (600 nm) (E. coli (BL21;DE3); peptide 50 μM): 45.5 ± 4.8%; decrease in O.D. (600 nm) (E. coli (BL21;DE3); peptide 100 μM): 63.6 ± 4.0%; r, radius of bacteria killing formed over petri dishes by peptide-solution discs (E. coli (BL21); disc solution 50 µM in 0.85% NaCl): 0 mm; r, radius of bacteria killing formed over petri dishes by peptide-solution discs (E. coli (BL21); disc solution 75 µM in 0.85% NaCl): 0.5 mm; r, radius of bacteria killing formed over petri dishes by peptide-solution discs (E. coli (BL21); disc solution 100 µM in 0.85% NaCl): 0.5 mm; r, radius of bacteria killing formed over petri dishes by peptide-solution discs (E. coli (BL21); disc solution 125 µM in 0.85% NaCl): 1 mm
